≈ marks a conversion by molar mass, not a printed value.
Tests used:
Candida albicans = experiment: Antimicrobial activity against Candida albicans ATCC 76615; assay type: functional
Candida tropicalis = experiment: Antimicrobial activity against Candida tropicalis isolates; assay type: functional
Cryptococcus neoformans = experiment: Antimicrobial activity against Cryptococcus neoformans ATCC 32609; assay type: functional
Aspergillus fumigatus = experiment: Antimicrobial activity against Aspergillus fumigatus isolates; assay type: functional
Trichophyton rubrum = experiment: Antimicrobial activity against Trichophyton rubrum isolates; assay type: functional
Nannizzia gypsea = experiment: Antimicrobial activity against Microsporum gypseum isolates; assay type: functional
Fonsecaea compacta = experiment: Antimicrobial activity against Fonsecaea compacta isolates; assay type: functional
Candida parapsilosis = experiment: Antimicrobial activity against Candida parapsilosis isolates; details: Lodderomyces parapsilosis

Compound | MIC (Candida albicans) | MIC (Candida tropicalis) | MIC (Cryptococcus neoformans) | MIC (Aspergillus fumigatus) | MIC (Trichophyton rubrum) | MIC (Nannizzia gypsea) | MIC (Fonsecaea compacta) | MIC (Candida parapsilosis)
OC(COc1ccc(-c2ccc(NCc3ccccc3)nc2)cc1)(Cn1cncn1)c1ccc(F)cc1F (stereo unspecified) | 0.25 µg/mL (≈ 0.487 µM) | 0.25 µg/mL (≈ 0.487 µM) | 1 µg/mL (≈ 1.95 µM) | 4 µg/mL (≈ 7.79 µM) | 0.25 µg/mL (≈ 0.487 µM) | > 64 µg/mL | 4 µg/mL (≈ 7.79 µM) | 0.0625 µg/mL (≈ 0.122 µM)
C[C@@H](c1ncncc1F)[C@](O)(Cn1cncn1)c1ccc(F)cc1F [VORICONAZOLE] | 0.25 µg/mL (≈ 0.716 µM) | 0.0156 µg/mL (≈ 0.0447 µM) | 1 µg/mL (≈ 2.86 µM) | 0.25 µg/mL (≈ 0.716 µM) | 0.0156 µg/mL (≈ 0.0447 µM) | 0.0156 µg/mL (≈ 0.0447 µM) | 0.0625 µg/mL (≈ 0.179 µM) | 0.0625 µg/mL (≈ 0.179 µM)
CNCc1ccc(-c2ccc(OCC(O)(Cn3cncn3)c3ccc(F)cc3F)cc2)cc1 (stereo unspecified) | 0.25 µg/mL (≈ 0.555 µM) | 0.25 µg/mL (≈ 0.555 µM) | 64 µg/mL (≈ 142 µM) | > 64 µg/mL | 0.0625 µg/mL (≈ 0.139 µM) | 1 µg/mL (≈ 2.22 µM) | 4 µg/mL (≈ 8.88 µM) | 0.25 µg/mL (≈ 0.555 µM)
CCCCCCCNc1ccc(-c2ccc(OCC(O)(Cn3cncn3)c3ccc(F)cc3F)cc2)cn1 (stereo unspecified) | 0.25 µg/mL (≈ 0.479 µM) | 0.25 µg/mL (≈ 0.479 µM) | 1 µg/mL (≈ 1.92 µM) | > 64 µg/mL | 0.25 µg/mL (≈ 0.479 µM) | 1 µg/mL (≈ 1.92 µM) | 1 µg/mL (≈ 1.92 µM) | 1 µg/mL (≈ 1.92 µM)
O=C(CN1CCCCC1)Nc1ccc(-c2ccc(OCC(O)(Cn3cncn3)c3ccc(F)cc3F)cc2)cn1 (stereo unspecified) | 0.0625 µg/mL (≈ 0.114 µM) | 0.0156 µg/mL (≈ 0.0284 µM) | 1 µg/mL (≈ 1.82 µM) | > 64 µg/mL | 0.25 µg/mL (≈ 0.456 µM) | 0.25 µg/mL (≈ 0.456 µM) | 1 µg/mL (≈ 1.82 µM) | 0.0625 µg/mL (≈ 0.114 µM)
CCNCc1ccc(-c2ccc(OCC(O)(Cn3cncn3)c3ccc(F)cc3F)cc2)cc1 (stereo unspecified) | 1 µg/mL (≈ 2.15 µM) | 0.25 µg/mL (≈ 0.538 µM) | 16 µg/mL (≈ 34.4 µM) | > 64 µg/mL | 0.25 µg/mL (≈ 0.538 µM) | 1 µg/mL (≈ 2.15 µM) | 1 µg/mL (≈ 2.15 µM) | 0.25 µg/mL (≈ 0.538 µM)
OCCNCc1ccc(-c2ccc(OCC(O)(Cn3cncn3)c3ccc(F)cc3F)cc2)cc1 (stereo unspecified) | 4 µg/mL (≈ 8.32 µM) | 1 µg/mL (≈ 2.08 µM) | 64 µg/mL (≈ 133 µM) | > 64 µg/mL | 1 µg/mL (≈ 2.08 µM) | 16 µg/mL (≈ 33.3 µM) | 16 µg/mL (≈ 33.3 µM) | 1 µg/mL (≈ 2.08 µM)
C[C@@H]1COC[C@H](C)N1Cc1ccc(C(=O)Nc2ccc(-c3ccc(OCC(O)(Cn4cncn4)c4ccc(F)cc4F)cc3)cn2)cc1 (stereo partly specified) | 0.0625 µg/mL (≈ 0.0955 µM) | 0.0625 µg/mL (≈ 0.0955 µM) | 4 µg/mL (≈ 6.11 µM) | > 64 µg/mL | > 64 µg/mL | > 64 µg/mL | 16 µg/mL (≈ 24.4 µM) | 0.0625 µg/mL (≈ 0.0955 µM)
Nc1ccc(-c2ccc(OCC(O)(Cn3cncn3)c3ccc(F)cc3F)cc2)cn1 (stereo unspecified) | 0.0625 µg/mL (≈ 0.148 µM) | 0.25 µg/mL (≈ 0.59 µM) | 64 µg/mL (≈ 151 µM) | 4 µg/mL (≈ 9.45 µM) | 0.0156 µg/mL (≈ 0.0368 µM) | 0.25 µg/mL (≈ 0.59 µM) | 0.0625 µg/mL (≈ 0.148 µM) | 0.25 µg/mL (≈ 0.59 µM)
O=C(CN1CCNCC1)Nc1ccc(-c2ccc(OCC(O)(Cn3cncn3)c3ccc(F)cc3F)cc2)cn1 (stereo unspecified) | 16 µg/mL (≈ 29.1 µM) | 1 µg/mL (≈ 1.82 µM) | 64 µg/mL (≈ 116 µM) | > 64 µg/mL | 1 µg/mL (≈ 1.82 µM) | 1 µg/mL (≈ 1.82 µM) | 1 µg/mL (≈ 1.82 µM) | 4 µg/mL (≈ 7.28 µM)
Cc1ccc(C(=O)Nc2ccc(-c3ccc(OCC(O)(Cn4cncn4)c4ccc(F)cc4F)cc3)cn2)cc1 (stereo unspecified) | 0.0625 µg/mL (≈ 0.115 µM) | 0.0625 µg/mL (≈ 0.115 µM) | 0.25 µg/mL (≈ 0.462 µM) | > 64 µg/mL | 0.0625 µg/mL (≈ 0.115 µM) | 0.25 µg/mL (≈ 0.462 µM) | 1 µg/mL (≈ 1.85 µM) | 0.0625 µg/mL (≈ 0.115 µM)
OCc1ccc(-c2ccc(OCC(O)(Cn3cncn3)c3ccc(F)cc3F)cc2)cc1 (stereo unspecified) | 0.0156 µg/mL (≈ 0.0357 µM) | 0.0156 µg/mL (≈ 0.0357 µM) | 1 µg/mL (≈ 2.29 µM) | > 64 µg/mL | 1 µg/mL (≈ 2.29 µM) | 1 µg/mL (≈ 2.29 µM) | 16 µg/mL (≈ 36.6 µM) | 0.0625 µg/mL (≈ 0.143 µM)
O=Cc1ccc(-c2ccc(OCC(O)(Cn3cncn3)c3ccc(F)cc3F)cc2)cc1 (stereo unspecified) | 0.0625 µg/mL (≈ 0.144 µM) | 0.25 µg/mL (≈ 0.574 µM) | 1 µg/mL (≈ 2.3 µM) | > 64 µg/mL | 1 µg/mL (≈ 2.3 µM) | 0.25 µg/mL (≈ 0.574 µM) | 0.25 µg/mL (≈ 0.574 µM) | > 64 µg/mL
Cc1cccc(C(=O)Nc2ccc(-c3ccc(OCC(O)(Cn4cncn4)c4ccc(F)cc4F)cc3)cn2)c1 (stereo unspecified) | 0.25 µg/mL (≈ 0.462 µM) | 0.25 µg/mL (≈ 0.462 µM) | 0.25 µg/mL (≈ 0.462 µM) | 64 µg/mL (≈ 118 µM) | 1 µg/mL (≈ 1.85 µM) | 1 µg/mL (≈ 1.85 µM) | 1 µg/mL (≈ 1.85 µM) | 0.25 µg/mL (≈ 0.462 µM)
Oc1ccc(CNc2ccc(-c3ccc(OCC(O)(Cn4cncn4)c4ccc(F)cc4F)cc3)cn2)cc1 (stereo unspecified) | 0.0625 µg/mL (≈ 0.118 µM) | 0.0156 µg/mL (≈ 0.0295 µM) | > 64 µg/mL | > 64 µg/mL | > 64 µg/mL | 4 µg/mL (≈ 7.55 µM) | 1 µg/mL (≈ 1.89 µM) | 0.0625 µg/mL (≈ 0.118 µM)
CCN(CC)Cc1ccc(C(=O)Nc2ccc(-c3ccc(OCC(O)(Cn4cncn4)c4ccc(F)cc4F)cc3)cn2)cc1 (stereo unspecified) | 0.0625 µg/mL (≈ 0.102 µM) | 0.0625 µg/mL (≈ 0.102 µM) | 4 µg/mL (≈ 6.53 µM) | > 64 µg/mL | 1 µg/mL (≈ 1.63 µM) | 1 µg/mL (≈ 1.63 µM) | 0.25 µg/mL (≈ 0.408 µM) | 0.25 µg/mL (≈ 0.408 µM)
CN(Cc1ccc(-c2ccc(OCC(O)(Cn3cncn3)c3ccc(F)cc3F)cc2)cc1)c1ccccc1 (stereo unspecified) | 1 µg/mL (≈ 1.9 µM) | 0.25 µg/mL (≈ 0.475 µM) | 1 µg/mL (≈ 1.9 µM) | > 64 µg/mL | 16 µg/mL (≈ 30.4 µM) | > 64 µg/mL | 16 µg/mL (≈ 30.4 µM) | 1 µg/mL (≈ 1.9 µM)
